Laboratory results taken from patent US20240024466A1, “LIPIDOID COMPOSITIONS AND METHODS OF USE THEREOF” (Trustees of Tufts College, priority 2020, published 2024).

Columns and labels:
[1] = tested on: STING pathway; test: In vitro ifnb1 and cxcl10 gene expression by RT PCR; assay type: cell-based; details: RAW264.7, 150 nM cGAMP, 4 h
[2] = tested on: STING pathway; test: as above; assay type: cell-based; details: DC2.4, 150 nM cGAMP, 4 h
[3] = tested on: STING pathway; test: In vivo ifnb1 and cxcl10 gene expression in tumors by RT PCR; set-up: species or system C57BL/6 mice; details: intratumoral, one day after DOX injection, 6 h post second injection
[4] = tested on: B16F10 tumors; test: Immunocellular composition of the tumor microenvironment (flow cytometry); details: 48 h after the second injection
Description: To further evaluate the changes of the cellular composition after the treatment, the tumors were collected at 48 h after the second injection. The tumors were dissociated to single cells, stained with antibodies, and analyzed by the flowcytometry (FIG. 11).
After 48 h post the second injection, the tumors were collected and suspended to single cell solutions by 40 μm strainer (Thermo-Fisher). The cells were collected, washed with PBS, and stained with fluorescent antibodies of CD4 (APC-Cy7), CD8a (PE-Cy5), CD45 (PE), CD3e (FITC), F4/80 (APC), and CD11c (APC) in Flow Cytometry Staining Buffer (eBioscience). Fluorescent signal was measured using LSR-II flow cytometer (BD Biosciences). The data was analyzed by FlowJo-v10.

[5] = tested on: C57BL/6 mice; test: OVA prime-boost immunization with LNP formulations, antibody response by ELISA; details: rough library screening, OVA formulated with LNPs, injections at day 1 and day 14, FIG. 7B
[6] = tested on: dengue virus; test: nAb response to a protein-based dengue virus vaccine with TLR ligands; details: in vivo
Description: The two TLR ligands individually will be produced and in combination into mRNA-LNPs and test if they enhance nAb response and reduce antibody-dependent enhancement. The mechanisms underlying the enhanced nAb response will be investigated for further adjuvant optimization.

[7] = tested on: B16F10 tumor; test: Treatment of B16F10 tumor by in situ vaccination; assay type: in vivo, C57BL/6 mice; details: DOX day 0, second and third injection day 1 and 5, intratumoral
[8] = tested on: draining lymph nodes; test: In vivo mRNA delivery, luciferase mRNA expression in draining lymph nodes; details: adjuvant incorporated into the LNP
[9] = tested on: BALB/c mice; details: s.c., IVIS 5 h after second injection

Molecule: Nc1nc2c(ncn2[C@@H]2O[C@@H]3COP(=O)(O)O[C@H]4[C@@H](O)[C@H](n5cnc6c(N)ncnc65)O[C@@H]4COP(=O)(O)O[C@@H]2[C@@H]3O)c(=O)[nH]1 [cGAMP, 2′5′-3′5′ cyclic guanosine monophosphate-adenosine monophosphate]
- expression of ifnb1 gene compared with PBS-treated cells [1]: modest increase
- expression of ifnb1 gene compared with PBS-treated cells [2]: modest increase
- expression of ifnb1 and cxcl10 genes in B16F10 tumors [3]: modest increase
- population of CD4+ and CD8+ T cells at tumor sites [4]: increasement

Molecule: lipopolysaccharide [LPS]
- IgG1 antibody response [5]: extremely positive

Molecule: poly I:C
- nAb responses to a protein-based dengue virus vaccine [6]: dramatically augment

Molecule: COc1cccc2c1C(=O)c1c(O)c3c(c(O)c1C2=O)C[C@@](O)(C(=O)CO)C[C@@H]3O[C@H]1C[C@H](N)[C@H](O)[C@H](C)O1 [DOX, doxorubicin]
- expression of ifnb1 and cxcl10 genes in B16F10 tumors [3]: did not changed significantly
- tumor growth inhibition (tumor volumes) [7]: slight inhibition
- population of CD4+ and CD8+ T cells at tumor sites [4]: did not make significant changes

Molecule: Pam3CSK4
- expression of luciferase mRNA in draining lymph nodes [8]: increased
- nAb responses to a protein-based dengue virus vaccine [6]: dramatically augment

B1: ovalbumin (protein, UniProt P01012 2-386, looked up)
Ovalbumin: GSIGAASMEFCFDVFKELKVHHANENIFYCPIAIMSALAMVYLGAKDSTRTQINKVVRFDKLPGFGDSIEAQCGTSVNVHSSLRDILNQITKPNDVYSFSLASRLYAEERYPILPEYLQCVKELYRGGLEPINFQTAADQARELINSWVESQTNGIIRNVLQPSSVDSQTAMVLVNAIVFKGLWEKAFKDEDTQAMPFRVTEQESKPVQMMYQIGLFRVASMASEKMKILELPFASGTMSMLVLLPDEVSGLEQLESIINFEKLTEWTSSNVMEERKIKVYLPRMKMEEKYNLTSVLMAMGITDVFSSSANLSGISSAESLKISQAVHAAHAEINEAGREVVGSAEAGVDAASVSEEFRADHPFLFCIKHIATNAVLFFGRCVSP
- IgG1 antibody response [5]: very low antibody response

B2: OVA^Alexa-647: Alexa Fluor 647-conjugated OVA, model antigen (protein, UniProt P01012 2-386, looked up)
Ovalbumin: B1 Ovalbumin
modifications: Alexa Fluor 647 label
- distribution of OVA^Alexa-647 fluorescence signal [9]: mainly distributed in bladder
